# Data as given in the supplement of paper PMC9663587.
# Assays:
# Test in all cases: increase in dead-cell fraction, 72 h; higher = more death;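 further: breast cancer cell lines in 384-well plates, stained with Hoechst plus LIVE/DEAD far red dye and imaged, cells above an LDR intensity threshold counted dead, Hoechst-negative corpses included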
# Torin2 = compound: C1=CC(=CC(=C1)N2C(=O)C=CC3=CN=C4C=CC(=CC4=C32)C5=CN=C(C=C5)N)C(F)(F)F [Torin2]
# Paclitaxel = compound: CC(=O)O[C@H]1C(=O)[C@@]2(C)[C@H]([C@H](OC(=O)c3ccccc3)[C@]3(O)C[C@H](OC(=O)[C@H](O)[C@@H](NC(=O)c4ccccc4)c4ccccc4)C(C)=C1C3(C)C)[C@]1(OC(C)=O)CO[C@@H]1C[C@@H]2O [Paclitaxel]
# SHP099 = compound: CC1(CCN(CC1)C2=CN=C(C(=N2)N)C3=C(C(=CC=C3)Cl)Cl)N [SHP099]
# [1] = compound: CCC1=CN=CN=C1N2CCN(CC2)CC3=NC4=C(N3)C=C(C=C4)C(F)(F)F
# [2] = compound: CCCCOc1c(C(=O)c2c(F)cc(C)cc2F)c[nH]c2nncc1-2
# Luminespib/NVP-AUY922 = compound: CCNC(=O)c1noc(-c2cc(C(C)C)c(O)cc2O)c1-c1ccc(CN2CCOCC2)cc1 [Luminespib/NVP-AUY922]
# senexin b = compound: CN1CCN(C(=O)c2ccc3cc(CCNc4ncnc5ccc(C#N)cc45)ccc3c2)CC1 [senexin b]
# Saracatinib/AZD0530 = compound: CN1CCN(CCOc2cc(OC3CCOCC3)c3c(Nc4c(Cl)ccc5c4OCO5)ncnc3c2)CC1 [Saracatinib/AZD0530]
# Pictilisib/GDC0941 = compound: CS(=O)(=O)N1CCN(Cc2cc3nc(-c4cccc5[nH]ncc45)nc(N4CCOCC4)c3s2)CC1 [Pictilisib/GDC0941]
# Ceritinib/LDK378 = compound: Cc1cc(Nc2ncc(Cl)c(Nc3ccccc3S(=O)(=O)C(C)C)n2)c(OC(C)C)cc1C1CCNCC1 [Ceritinib/LDK378]
# Dasatinib = compound: Cc1nc(Nc2ncc(C(=O)Nc3c(C)cccc3Cl)s2)cc(N2CCN(CCO)CC2)n1 [Dasatinib]
# Olaparib/AZD2281 = compound: O=C(c1cc(Cc2n[nH]c(=O)c3ccccc23)ccc1F)N1CCN(C(=O)C2CC2)CC1 [Olaparib/AZD2281]
cell line,measurement,setting,value
AU565,increase in dead-cell fraction,Torin2; 0.0001 µM,0.0019
same,increase in dead-cell fraction,Torin2; 0.0003162 µM,0.0033
same,increase in dead-cell fraction,Torin2; 0.001 µM,0.0025
same,increase in dead-cell fraction,Torin2; 0.003162 µM,0.0127
same,increase in dead-cell fraction,Torin2; 0.01 µM,0.032
same,increase in dead-cell fraction,Torin2; 0.03162 µM,0.0466
same,increase in dead-cell fraction,Torin2; 0.1 µM,0.0874
same,increase in dead-cell fraction,Torin2; 0.3162 µM,0.0982
same,increase in dead-cell fraction,Torin2; 1 µM,0.121
same,increase in dead-cell fraction,Paclitaxel; 0.0001 µM,0.0067
same,increase in dead-cell fraction,Paclitaxel; 0.0003162 µM,0.0015
same,increase in dead-cell fraction,Paclitaxel; 0.001 µM,0.0164
same,increase in dead-cell fraction,Paclitaxel; 0.003162 µM,0.226
same,increase in dead-cell fraction,Paclitaxel; 0.01 µM,0.312
same,increase in dead-cell fraction,Paclitaxel; 0.03162 µM,0.333
same,increase in dead-cell fraction,Paclitaxel; 0.1 µM,0.324
same,increase in dead-cell fraction,Paclitaxel; 0.3162 µM,0.278
same,increase in dead-cell fraction,Paclitaxel; 1 µM,0.303
same,increase in dead-cell fraction,SHP099; 0.001 µM,-0.0127
same,increase in dead-cell fraction,SHP099; 0.003162 µM,-0.0116
same,increase in dead-cell fraction,SHP099; 0.01 µM,-0.0073
same,increase in dead-cell fraction,SHP099; 0.03162 µM,-0.0133
same,increase in dead-cell fraction,SHP099; 0.1 µM,-0.0124
same,increase in dead-cell fraction,SHP099; 0.3162 µM,-0.0047
same,increase in dead-cell fraction,SHP099; 1 µM,-0.0147
same,increase in dead-cell fraction,SHP099; 3.162 µM,0.0036
same,increase in dead-cell fraction,SHP099; 10 µM,-0.0053
same,increase in dead-cell fraction,[1]; 0.001 µM,0.0018
same,increase in dead-cell fraction,[1]; 0.003162 µM,-0.0015
same,increase in dead-cell fraction,[1]; 0.01 µM,-0.0042
same,increase in dead-cell fraction,[1]; 0.03162 µM,-0.0013
same,increase in dead-cell fraction,[1]; 0.1 µM,0.0031
same,increase in dead-cell fraction,[1]; 0.3162 µM,-0.0005
same,increase in dead-cell fraction,[1]; 1 µM,0.001
same,increase in dead-cell fraction,[1]; 3.162 µM,0.0056
same,increase in dead-cell fraction,[1]; 10 µM,0.0157
same,increase in dead-cell fraction,[2]; 0.001 µM,0.0215
same,increase in dead-cell fraction,[2]; 0.003162 µM,-0.004
same,increase in dead-cell fraction,[2]; 0.01 µM,0.0231
same,increase in dead-cell fraction,[2]; 0.03162 µM,0.0204
same,increase in dead-cell fraction,[2]; 0.1 µM,0.0353
same,increase in dead-cell fraction,[2]; 0.3162 µM,0.0286
same,increase in dead-cell fraction,[2]; 1 µM,0.0615
same,increase in dead-cell fraction,[2]; 3.162 µM,0.0772
same,increase in dead-cell fraction,[2]; 10 µM,0.136
same,increase in dead-cell fraction,Luminespib/NVP-AUY922; 0.0001 µM,-0.0018
same,increase in dead-cell fraction,Luminespib/NVP-AUY922; 0.0003162 µM,-0.0005
same,increase in dead-cell fraction,Luminespib/NVP-AUY922; 0.001 µM,-0.0013
same,increase in dead-cell fraction,Luminespib/NVP-AUY922; 0.003162 µM,0.0017
same,increase in dead-cell fraction,Luminespib/NVP-AUY922; 0.01 µM,0.0215
same,increase in dead-cell fraction,Luminespib/NVP-AUY922; 0.03162 µM,0.03
same,increase in dead-cell fraction,Luminespib/NVP-AUY922; 0.1 µM,0.0462
same,increase in dead-cell fraction,Luminespib/NVP-AUY922; 0.3162 µM,0.0389
same,increase in dead-cell fraction,Luminespib/NVP-AUY922; 1 µM,0.0492
same,increase in dead-cell fraction,senexin b; 0.001 µM,-0.0057
same,increase in dead-cell fraction,senexin b; 0.003162 µM,-0.0066
same,increase in dead-cell fraction,senexin b; 0.01 µM,-0.0019
same,increase in dead-cell fraction,senexin b; 0.03162 µM,-0.0056
same,increase in dead-cell fraction,senexin b; 0.1 µM,-0.0146
same,increase in dead-cell fraction,senexin b; 0.3162 µM,0.0036
same,increase in dead-cell fraction,senexin b; 1 µM,0.0078
same,increase in dead-cell fraction,senexin b; 3.162 µM,0.0105
same,increase in dead-cell fraction,senexin b; 10 µM,-0.0068
same,increase in dead-cell fraction,Saracatinib/AZD0530; 0.001 µM,-0.003
same,increase in dead-cell fraction,Saracatinib/AZD0530; 0.003162 µM,0.0003
same,increase in dead-cell fraction,Saracatinib/AZD0530; 0.01 µM,0.0038
same,increase in dead-cell fraction,Saracatinib/AZD0530; 0.03162 µM,-0.0046
same,increase in dead-cell fraction,Saracatinib/AZD0530; 0.1 µM,-0.0038
same,increase in dead-cell fraction,Saracatinib/AZD0530; 0.3162 µM,-0.0029
same,increase in dead-cell fraction,Saracatinib/AZD0530; 1 µM,0.0012
same,increase in dead-cell fraction,Saracatinib/AZD0530; 3.162 µM,0.0017
same,increase in dead-cell fraction,Saracatinib/AZD0530; 10 µM,0.0305
same,increase in dead-cell fraction,Pictilisib/GDC0941; 0.001 µM,0.0052
same,increase in dead-cell fraction,Pictilisib/GDC0941; 0.003162 µM,0.007
same,increase in dead-cell fraction,Pictilisib/GDC0941; 0.01 µM,0.0001
same,increase in dead-cell fraction,Pictilisib/GDC0941; 0.03162 µM,0.0063
same,increase in dead-cell fraction,Pictilisib/GDC0941; 0.1 µM,0.0196
same,increase in dead-cell fraction,Pictilisib/GDC0941; 0.3162 µM,0.0368
same,increase in dead-cell fraction,Pictilisib/GDC0941; 1 µM,0.0866
same,increase in dead-cell fraction,Pictilisib/GDC0941; 3.162 µM,0.126
same,increase in dead-cell fraction,Pictilisib/GDC0941; 10 µM,0.19
same,increase in dead-cell fraction,Ceritinib/LDK378; 0.001 µM,-0.0009
same,increase in dead-cell fraction,Ceritinib/LDK378; 0.003162 µM,0.0007
same,increase in dead-cell fraction,Ceritinib/LDK378; 0.01 µM,0.001
same,increase in dead-cell fraction,Ceritinib/LDK378; 0.03162 µM,-0.0017
same,increase in dead-cell fraction,Ceritinib/LDK378; 0.1 µM,-0.004
same,increase in dead-cell fraction,Ceritinib/LDK378; 0.3162 µM,0.0015
same,increase in dead-cell fraction,Ceritinib/LDK378; 1 µM,0.0037
same,increase in dead-cell fraction,Ceritinib/LDK378; 3.162 µM,0.0216
same,increase in dead-cell fraction,Dasatinib; 0.001 µM,0.0065
same,increase in dead-cell fraction,Dasatinib; 0.003162 µM,0.0017
same,increase in dead-cell fraction,Dasatinib; 0.01 µM,0.0035
same,increase in dead-cell fraction,Dasatinib; 0.03162 µM,-0.0007
same,increase in dead-cell fraction,Dasatinib; 0.1 µM,-0.003
same,increase in dead-cell fraction,Dasatinib; 0.3162 µM,0.0019
same,increase in dead-cell fraction,Dasatinib; 1 µM,-0.0024
same,increase in dead-cell fraction,Dasatinib; 3.162 µM,0.0091
same,increase in dead-cell fraction,Dasatinib; 10 µM,0.0365
same,increase in dead-cell fraction,Olaparib/AZD2281; 0.001 µM,-0.0007
same,increase in dead-cell fraction,Olaparib/AZD2281; 0.003162 µM,-0.0016
same,increase in dead-cell fraction,Olaparib/AZD2281; 0.01 µM,0.0011
same,increase in dead-cell fraction,Olaparib/AZD2281; 0.03162 µM,-0.0026
same,increase in dead-cell fraction,Olaparib/AZD2281; 0.1 µM,0.0033
same,increase in dead-cell fraction,Olaparib/AZD2281; 0.3162 µM,-0.0012
same,increase in dead-cell fraction,Olaparib/AZD2281; 1 µM,-0.006
same,increase in dead-cell fraction,Olaparib/AZD2281; 3.162 µM,-0.0026
same,increase in dead-cell fraction,Olaparib/AZD2281; 10 µM,0.0043
